The numbers were not newly measured in patent US11369672B2 (priority 2012, dated 2022), which cites them from elsewhere.

Converted amounts (≈) assume the structure as drawn.

This data set deals with Mtb H37Rv.

As to `CO[C@H]1/C=C/O[C@@]2(C)Oc3c(C)c(O)c4c(O)c(c(/C=N/N5CCN(C)CC5)c(O)c4c3C2=O)NC(=O)/C(C)=C\C=C\[C@H](C)[C@H](O)[C@@H](C)[C@@H](O)[C@@H](C)[C@H](OC(C)=O)[C@@H]1C` [RIF, rifampin], the minimum inhibitory concentration was 0.25 µM (≈ 0.206 µg/mL).
